Assay in all cases: Cysteine liganding, probe competition
Common to all, as to format: binding

Test [1] concerns the target T1, UniProt O75382 (Homo sapiens, UniProt O75382).
T1 construct: 200 μL of lysate containing 5 mg/ml proteome was treated with 2 μL of 100× compound stock; endogenous in cells
The note with it: 100 uM. The text has this:
(§1) The following 96-well sample prep protocol was used for sample preparation.

The target of test [2] is T2, UniProt P14373 (Homo sapiens, UniProt P14373).
T2 construct: 200 μL of lysate containing 5 mg/ml proteome was treated with 2 μL of 100× compound stock; endogenous in cells
The note with it: 100 uM.
Source text: as §1

Test [3] addresses T3, UniProt Q86TM6 (Homo sapiens, UniProt Q86TM6).
T3 construct: 200 μL of lysate containing 5 mg/ml proteome was treated with 2 μL of 100× compound stock; endogenous in cells
The note with it: 100 uM.
Source text: as §1

Test [4] concerns the target T4, UniProt Q86XN8 (Homo sapiens, UniProt Q86XN8).
T4 construct: Cells were resuspended in cold PBS on ice and sonicated with a probe sonicator to achieve lysis; endogenous in cells
As to conditions: 100 uM.
Source text: as §1

The target of test [5] is T5, UniProt Q9C019 (Homo sapiens, UniProt Q9C019).
T5 construct: 200 μL of lysate containing 5 mg/ml proteome was treated with 2 μL of 100× compound stock; endogenous in cells
The note with it: 100 uM.
Source text: as §1

Test [6] addresses T6, UniProt P51948 (Homo sapiens, UniProt P51948).
T6 construct: Cells were resuspended in cold PBS on ice and sonicated with a probe sonicator to achieve lysis; endogenous in cells
As to conditions: read-out: percent inhibition.
Source text: as §1

The target in test [7] is T7, UniProt Q15366 (Homo sapiens, UniProt Q15366).
T7 construct: Cells were resuspended in cold PBS on ice and sonicated with a probe sonicator to achieve lysis; endogenous in cells
The note with it: read-out: KB02_500 uM_percent_inhibition.
Source text: as §1

Test [8] addresses T8, UniProt Q6Q0C0 (Homo sapiens, UniProt Q6Q0C0).
T8 construct: 200 μL of lysate containing 5 mg/ml proteome was treated with 2 μL of 100× compound stock; endogenous in cells
T8 sequence (Q6Q0C0 1-670): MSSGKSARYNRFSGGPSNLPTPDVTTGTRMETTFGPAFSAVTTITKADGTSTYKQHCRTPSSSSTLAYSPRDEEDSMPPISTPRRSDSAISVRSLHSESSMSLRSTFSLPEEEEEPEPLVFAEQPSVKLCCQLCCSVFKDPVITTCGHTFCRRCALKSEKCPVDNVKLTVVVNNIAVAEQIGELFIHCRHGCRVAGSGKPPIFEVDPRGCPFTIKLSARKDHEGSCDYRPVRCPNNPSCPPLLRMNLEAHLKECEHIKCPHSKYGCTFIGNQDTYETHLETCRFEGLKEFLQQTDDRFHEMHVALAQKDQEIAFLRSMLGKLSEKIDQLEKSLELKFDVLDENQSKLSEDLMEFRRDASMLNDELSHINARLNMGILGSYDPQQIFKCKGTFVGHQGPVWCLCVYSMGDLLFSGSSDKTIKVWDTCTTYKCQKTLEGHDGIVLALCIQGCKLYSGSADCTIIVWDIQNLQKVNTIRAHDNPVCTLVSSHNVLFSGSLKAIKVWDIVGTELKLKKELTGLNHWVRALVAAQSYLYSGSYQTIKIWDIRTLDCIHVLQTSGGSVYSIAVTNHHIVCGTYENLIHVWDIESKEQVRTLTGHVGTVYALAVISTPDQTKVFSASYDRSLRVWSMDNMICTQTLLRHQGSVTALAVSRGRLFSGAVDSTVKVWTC
Source text: as §1

The target in test [9] is T9, UniProt Q96EP0 (Homo sapiens, UniProt Q96EP0).
T9 construct: 200 μL of lysate containing 5 mg/ml proteome was treated with 2 μL of 100× compound stock; endogenous in cells
As to conditions: 500 uM.
Source text: as §1

Test [10] concerns the target T10, UniProt Q9BYV6 (Homo sapiens, UniProt Q9BYV6).
T10 construct: 200 μL of lysate containing 5 mg/ml proteome was treated with 2 μL of 100× compound stock; endogenous in cells
The note with it: read-out: KB02_500 uM_percent_inhibition.
Source text: as §1

The target in test [11] is T11, UniProt Q9C040 (Homo sapiens, UniProt Q9C040).
T11 construct: 200 μL of lysate containing 5 mg/ml proteome was treated with 2 μL of 100× compound stock; endogenous in cells
T11 sequence (Q9C040 whole entry, change not shown): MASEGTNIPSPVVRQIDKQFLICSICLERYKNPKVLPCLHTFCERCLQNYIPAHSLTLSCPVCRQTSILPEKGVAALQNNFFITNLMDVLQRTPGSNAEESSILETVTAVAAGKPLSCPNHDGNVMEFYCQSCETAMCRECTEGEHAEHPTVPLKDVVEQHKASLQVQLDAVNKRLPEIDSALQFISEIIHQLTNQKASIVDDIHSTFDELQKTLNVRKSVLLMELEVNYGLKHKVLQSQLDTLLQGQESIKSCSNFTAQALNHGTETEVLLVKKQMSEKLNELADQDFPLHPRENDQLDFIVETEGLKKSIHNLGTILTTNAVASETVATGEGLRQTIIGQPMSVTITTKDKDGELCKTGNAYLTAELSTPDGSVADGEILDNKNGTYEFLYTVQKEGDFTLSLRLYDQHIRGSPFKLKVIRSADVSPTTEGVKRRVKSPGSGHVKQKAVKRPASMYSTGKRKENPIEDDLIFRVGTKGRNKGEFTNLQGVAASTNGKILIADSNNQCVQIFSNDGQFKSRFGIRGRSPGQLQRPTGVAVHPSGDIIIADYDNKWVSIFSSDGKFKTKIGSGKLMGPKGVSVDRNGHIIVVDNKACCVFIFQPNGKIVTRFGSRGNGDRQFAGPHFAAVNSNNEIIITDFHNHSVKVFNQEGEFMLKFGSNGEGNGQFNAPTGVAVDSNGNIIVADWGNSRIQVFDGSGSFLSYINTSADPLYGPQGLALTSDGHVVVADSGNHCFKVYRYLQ
Source text: as §1

Test [12] has as its target T12, UniProt Q9NQ86 (Homo sapiens, UniProt Q9NQ86).
T12 construct: 200 μL of lysate containing 5 mg/ml proteome was treated with 2 μL of 100× compound stock; endogenous in cells
Source text: as §1

Test [13] concerns the target T13, UniProt A8MQ27 (Homo sapiens, UniProt A8MQ27).
T13 construct: Cells were resuspended in cold PBS on ice and sonicated with a probe sonicator to achieve lysis; endogenous in cells
The note with it: read-out: percent inhibition.
Source text: as §1

The target of test [14] is T14, UniProt O60291 (Homo sapiens, UniProt O60291).
T14 construct: Cells were resuspended in cold PBS on ice and sonicated with a probe sonicator to achieve lysis; endogenous in cells
T14 sequence (O60291 whole entry, change not shown): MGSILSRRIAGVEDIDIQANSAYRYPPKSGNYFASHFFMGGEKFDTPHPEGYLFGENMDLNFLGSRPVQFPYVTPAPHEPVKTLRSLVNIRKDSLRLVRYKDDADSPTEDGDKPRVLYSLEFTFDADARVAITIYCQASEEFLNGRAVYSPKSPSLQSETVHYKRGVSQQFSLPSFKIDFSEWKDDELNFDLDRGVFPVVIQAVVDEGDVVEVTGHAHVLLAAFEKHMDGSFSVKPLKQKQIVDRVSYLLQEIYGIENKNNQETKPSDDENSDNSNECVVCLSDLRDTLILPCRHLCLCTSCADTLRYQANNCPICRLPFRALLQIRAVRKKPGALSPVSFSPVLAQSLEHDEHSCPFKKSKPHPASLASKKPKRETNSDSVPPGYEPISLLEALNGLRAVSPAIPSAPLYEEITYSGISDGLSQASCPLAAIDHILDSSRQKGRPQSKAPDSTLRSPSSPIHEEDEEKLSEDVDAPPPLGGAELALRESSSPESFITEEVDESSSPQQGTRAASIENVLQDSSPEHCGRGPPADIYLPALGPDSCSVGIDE
Source text: as §1

Test [15] has as its target T15, UniProt P19474 (Homo sapiens, UniProt P19474).
T15 construct: 200 μL of lysate containing 5 mg/ml proteome was treated with 2 μL of 100× compound stock; endogenous in cells
As to conditions: read-out: KB05_100 uM_percent_inhibition.
Source text: as §1

Test [16] has as its target T16, UniProt Q13309 (Homo sapiens, UniProt Q13309).
T16 construct: 200 μL of lysate containing 5 mg/ml proteome was treated with 2 μL of 100× compound stock; endogenous in cells
The note with it: read-out: percent_inhibition.
Source text: as §1

For test [17], the target named is T17, UniProt Q13356 (Homo sapiens, UniProt Q13356).
T17 construct: 200 μL of lysate containing 5 mg/ml proteome was treated with 2 μL of 100× compound stock; endogenous in cells
As to conditions: read-out: KB05_500 uM_percent_inhibition.
Source text: as §1

Test [18] addresses T18, UniProt Q149N8 (Homo sapiens, UniProt Q149N8).
T18 construct: 200 μL of lysate containing 5 mg/ml proteome was treated with 2 μL of 100× compound stock; endogenous in cells
As to conditions: read-out: percent_inhibition.
Source text: as §1

For test [19], the target named is T19, UniProt Q8IUQ4 (Homo sapiens, UniProt Q8IUQ4).
T19 construct: 200 μL of lysate containing 5 mg/ml proteome was treated with 2 μL of 100× compound stock; endogenous in cells
T19 sequence (Q8IUQ4 whole entry, change not shown): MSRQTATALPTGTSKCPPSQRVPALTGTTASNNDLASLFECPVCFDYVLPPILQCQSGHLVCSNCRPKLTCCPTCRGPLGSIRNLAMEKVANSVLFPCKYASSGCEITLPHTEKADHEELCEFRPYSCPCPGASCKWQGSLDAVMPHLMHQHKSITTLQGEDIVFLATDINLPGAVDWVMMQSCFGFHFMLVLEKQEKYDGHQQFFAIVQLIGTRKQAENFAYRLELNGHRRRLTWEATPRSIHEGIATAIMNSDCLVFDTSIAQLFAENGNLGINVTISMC
Source text: as §1

In test [20] the target is T20, UniProt Q8N653 (Homo sapiens, UniProt Q8N653).
T20 construct: Cells were resuspended in cold PBS on ice and sonicated with a probe sonicator to achieve lysis; endogenous in cells
The note with it: read-out: percent inhibition.
Source text: as §1

Test [21] addresses T21, UniProt Q96AX9 (Homo sapiens, UniProt Q96AX9).
T21 construct: Cells were resuspended in cold PBS on ice and sonicated with a probe sonicator to achieve lysis; endogenous in cells
Source text: as §1

Test [22] deals with T22, UniProt Q99942 (Homo sapiens, UniProt Q99942).
T22 construct: 200 μL of lysate containing 5 mg/ml proteome was treated with 2 μL of 100× compound stock; endogenous in cells
T22 sequence (Q99942 whole entry, change not shown): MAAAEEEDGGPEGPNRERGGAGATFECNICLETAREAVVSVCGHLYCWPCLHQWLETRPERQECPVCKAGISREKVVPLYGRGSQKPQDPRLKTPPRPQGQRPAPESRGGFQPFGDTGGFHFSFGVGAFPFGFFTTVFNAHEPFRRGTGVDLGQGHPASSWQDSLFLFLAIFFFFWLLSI
Source text: as §1

The target in test [23] is T23, UniProt Q9C037 (Homo sapiens, UniProt Q9C037).
T23 construct: 200 μL of lysate containing 5 mg/ml proteome was treated with 2 μL of 100× compound stock; endogenous in cells
As to conditions: read-out: KB05_100 uM_percent_inhibition.
Source text: as §1

The target in test [24] is T24, UniProt Q9HAT8 (Homo sapiens, UniProt Q9HAT8).
T24 construct: 200 μL of lysate containing 5 mg/ml proteome was treated with 2 μL of 100× compound stock; endogenous in cells
T24 sequence (Q9HAT8 whole entry, change not shown): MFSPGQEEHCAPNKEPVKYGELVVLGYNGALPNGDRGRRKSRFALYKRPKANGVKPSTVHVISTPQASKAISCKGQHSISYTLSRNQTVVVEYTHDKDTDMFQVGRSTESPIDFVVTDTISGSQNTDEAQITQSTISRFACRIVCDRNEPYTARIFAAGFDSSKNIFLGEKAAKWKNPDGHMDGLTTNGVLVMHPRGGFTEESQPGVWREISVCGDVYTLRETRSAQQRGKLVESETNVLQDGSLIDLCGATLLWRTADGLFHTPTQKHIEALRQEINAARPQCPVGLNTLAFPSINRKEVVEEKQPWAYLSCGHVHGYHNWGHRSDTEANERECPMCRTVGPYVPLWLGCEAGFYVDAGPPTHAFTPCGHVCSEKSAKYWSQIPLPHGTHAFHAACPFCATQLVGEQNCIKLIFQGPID
Source text: as §1

The target in test [25] is T25, UniProt Q9NS56 (Homo sapiens, UniProt Q9NS56).
T25 construct: 200 μL of lysate containing 5 mg/ml proteome was treated with 2 μL of 100× compound stock; endogenous in cells
T25 sequence (Q9NS56 whole entry, change not shown): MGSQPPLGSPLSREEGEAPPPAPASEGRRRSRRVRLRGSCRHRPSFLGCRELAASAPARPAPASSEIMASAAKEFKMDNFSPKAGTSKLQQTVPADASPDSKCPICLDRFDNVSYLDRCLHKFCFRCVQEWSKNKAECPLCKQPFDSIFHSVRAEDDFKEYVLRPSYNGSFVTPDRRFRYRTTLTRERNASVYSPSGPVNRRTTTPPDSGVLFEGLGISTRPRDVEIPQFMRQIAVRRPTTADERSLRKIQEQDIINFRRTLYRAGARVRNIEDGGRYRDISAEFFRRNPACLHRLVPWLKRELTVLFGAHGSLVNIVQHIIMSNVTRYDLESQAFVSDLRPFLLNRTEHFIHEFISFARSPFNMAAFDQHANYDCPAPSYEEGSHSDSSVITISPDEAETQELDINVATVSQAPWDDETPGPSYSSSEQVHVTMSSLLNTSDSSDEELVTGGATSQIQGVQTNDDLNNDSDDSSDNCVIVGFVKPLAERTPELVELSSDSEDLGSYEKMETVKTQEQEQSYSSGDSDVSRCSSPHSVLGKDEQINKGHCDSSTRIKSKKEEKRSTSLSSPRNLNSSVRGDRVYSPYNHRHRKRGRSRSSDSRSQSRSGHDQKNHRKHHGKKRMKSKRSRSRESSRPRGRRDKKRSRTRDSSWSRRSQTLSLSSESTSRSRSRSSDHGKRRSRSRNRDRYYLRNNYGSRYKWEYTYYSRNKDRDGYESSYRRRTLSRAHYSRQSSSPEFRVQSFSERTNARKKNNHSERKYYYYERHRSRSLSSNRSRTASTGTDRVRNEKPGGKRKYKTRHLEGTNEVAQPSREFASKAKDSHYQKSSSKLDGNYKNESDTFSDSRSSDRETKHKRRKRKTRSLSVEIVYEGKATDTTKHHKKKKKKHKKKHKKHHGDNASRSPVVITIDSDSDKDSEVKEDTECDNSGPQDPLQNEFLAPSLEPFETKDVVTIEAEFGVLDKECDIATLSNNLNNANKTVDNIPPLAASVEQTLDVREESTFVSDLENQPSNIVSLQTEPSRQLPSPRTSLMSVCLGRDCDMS
Source text: as §1

[26] abbreviates: 100 uM, read-out: KB02_100 uM_percent_inhibition.
The mark [27] stands for this setting: 500 uM, read-out: KB02_500 uM_percent_inhibition.

Read-outs that look alike come from different tables or passages of the source.

T12 sequence (Q9NQ86 whole entry, change not shown): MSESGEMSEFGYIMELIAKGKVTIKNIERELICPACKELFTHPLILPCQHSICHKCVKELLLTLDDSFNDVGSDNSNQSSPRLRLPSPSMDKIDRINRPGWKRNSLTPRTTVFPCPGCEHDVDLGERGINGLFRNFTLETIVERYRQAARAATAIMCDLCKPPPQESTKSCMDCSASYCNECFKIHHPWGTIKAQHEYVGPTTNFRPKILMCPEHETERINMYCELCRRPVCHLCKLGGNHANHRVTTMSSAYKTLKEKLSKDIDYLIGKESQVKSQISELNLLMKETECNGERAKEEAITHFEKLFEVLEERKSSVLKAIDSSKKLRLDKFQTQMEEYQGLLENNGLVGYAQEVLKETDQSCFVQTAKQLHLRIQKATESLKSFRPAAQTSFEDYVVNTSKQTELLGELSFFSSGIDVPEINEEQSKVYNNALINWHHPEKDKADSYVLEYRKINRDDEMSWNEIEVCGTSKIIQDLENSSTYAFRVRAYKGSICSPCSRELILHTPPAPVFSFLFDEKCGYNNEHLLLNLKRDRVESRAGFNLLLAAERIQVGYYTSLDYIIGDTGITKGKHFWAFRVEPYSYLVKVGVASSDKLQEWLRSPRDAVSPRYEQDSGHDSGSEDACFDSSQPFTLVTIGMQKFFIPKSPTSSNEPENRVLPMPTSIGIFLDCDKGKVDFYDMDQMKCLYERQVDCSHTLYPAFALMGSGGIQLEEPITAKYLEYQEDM
T21 sequence (Q96AX9 whole entry, change not shown): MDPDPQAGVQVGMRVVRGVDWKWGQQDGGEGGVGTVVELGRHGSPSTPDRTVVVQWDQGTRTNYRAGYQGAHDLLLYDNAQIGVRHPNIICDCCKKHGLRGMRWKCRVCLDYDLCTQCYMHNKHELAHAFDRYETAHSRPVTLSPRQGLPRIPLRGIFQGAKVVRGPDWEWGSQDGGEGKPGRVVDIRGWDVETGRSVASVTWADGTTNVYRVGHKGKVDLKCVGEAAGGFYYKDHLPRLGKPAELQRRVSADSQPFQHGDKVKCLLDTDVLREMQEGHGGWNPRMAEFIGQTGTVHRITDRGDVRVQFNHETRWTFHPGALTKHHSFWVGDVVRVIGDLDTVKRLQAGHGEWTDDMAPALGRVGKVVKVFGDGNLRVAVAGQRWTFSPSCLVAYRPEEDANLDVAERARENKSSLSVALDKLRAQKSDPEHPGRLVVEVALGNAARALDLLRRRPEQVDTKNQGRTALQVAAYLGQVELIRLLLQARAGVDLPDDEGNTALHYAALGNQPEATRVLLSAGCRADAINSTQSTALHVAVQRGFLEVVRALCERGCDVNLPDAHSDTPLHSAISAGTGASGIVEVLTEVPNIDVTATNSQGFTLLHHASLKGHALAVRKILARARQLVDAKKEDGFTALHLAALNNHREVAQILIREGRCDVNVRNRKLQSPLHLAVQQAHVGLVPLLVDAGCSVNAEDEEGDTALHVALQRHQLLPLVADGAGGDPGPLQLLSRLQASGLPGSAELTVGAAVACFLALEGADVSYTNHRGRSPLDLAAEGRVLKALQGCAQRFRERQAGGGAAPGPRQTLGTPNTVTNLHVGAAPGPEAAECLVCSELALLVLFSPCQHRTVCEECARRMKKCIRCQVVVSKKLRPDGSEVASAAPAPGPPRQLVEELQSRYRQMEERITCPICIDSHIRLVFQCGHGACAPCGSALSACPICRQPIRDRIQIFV

Consider `O=C(CCl)Nc1cc(C(F)(F)F)cc(C(F)(F)F)c1` [KBO3], for which the results for the “KB03_100 uM_percent_inhibition” value in test [1], in [2] and in test [5] were 45%, 13% and 18%, respectively. Also, the percent_inhibition in [3] amounted to 19%. In [4], the percent inhibition is reported as 48%.
As to `COc1ccc2c(c1)CCCN2C(=O)CCl` [KB02], the inhibition at 100 µM in test [6] came out at 3%; in [8] (setting [26]), 3%; in [8] (read-out: percent_inhibition), 1%; in [11] (setting [26]), 20%; in test [12] (setting [26]), 27%. Besides, the inhibition at 500 µM in test [7] stood at 45%; in test [8] (setting [27]), 47%; in [10], 1%; in test [11] (setting [27]), 32%. The percent_inhibition in test [9] worked out at 24%. For the same compound, in test [12] (500 uM), the “KB02_500 uM_percent_inhibition” value was determined as 88%.
As for `C=CC(=O)N(c1ccccc1)c1ccc(Br)cc1` [KB05], the inhibition at 500 µM was 44% in test [13]; 69% in test [17]; 63% in test [24] (500 uM, read-out: KB05_500 uM_percent_inhibition). Moreover, the percent inhibition in [14] (100 uM) was 20%; in test [21] (100 uM), 9%. Further, the inhibition at 100 µM in test [14] (read-out: percent inhibition) was 13%; in test [15], 39%; in test [16] it was 10%; in test [18], 41%; in test [19] (read-out: percent_inhibition), 9%; in test [20], 11%. For the same compound, the inhibition at 100 µM in [21] (read-out: percent inhibition) was found to be 11%; in test [22] (read-out: percent_inhibition), 14%; in test [23], 11%; in test [24] (100 uM, read-out: KB05_100 uM_percent_inhibition) it was 15%; in [25] (read-out: percent_inhibition), 13%. Further, the percent_inhibition in test [19] (100 uM) came out at 17%; in test [22] (100 uM), 15%; in test [25] (100 uM), 11%.

The values are drawn from patent US20200239530A1, “COMPOUNDS AND METHODS OF MODULATING PROTEIN DEGRADATION” (Vividion Therapeutics, Inc., priority 2017, published 2020).
